ChEMBL document CHEMBL5291721, “A preclinical secondary pharmacology resource illuminates target-adverse drug reaction associations of marketed drugs” (Nat Commun, 2023)

Tests used:
Adenosine receptor A3 = target: T1, Adenosine receptor A3 (Homo sapiens, UniProt P0DMS8)
T1 sequence (P0DMS8 whole entry): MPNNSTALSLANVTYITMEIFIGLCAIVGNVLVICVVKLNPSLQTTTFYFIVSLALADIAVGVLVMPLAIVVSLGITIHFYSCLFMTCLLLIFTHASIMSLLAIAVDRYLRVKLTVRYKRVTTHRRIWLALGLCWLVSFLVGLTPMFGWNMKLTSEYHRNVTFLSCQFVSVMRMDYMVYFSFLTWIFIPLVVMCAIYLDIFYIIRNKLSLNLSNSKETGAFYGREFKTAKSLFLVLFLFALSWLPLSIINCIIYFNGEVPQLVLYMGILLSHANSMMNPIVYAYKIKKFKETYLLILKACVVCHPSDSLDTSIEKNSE

[1] = target: Vascular endothelial growth factor receptor 2 (Homo sapiens, UniProt P35968); assay type: functional
Sequence of Vascular endothelial growth factor receptor 2 (P35968 whole entry): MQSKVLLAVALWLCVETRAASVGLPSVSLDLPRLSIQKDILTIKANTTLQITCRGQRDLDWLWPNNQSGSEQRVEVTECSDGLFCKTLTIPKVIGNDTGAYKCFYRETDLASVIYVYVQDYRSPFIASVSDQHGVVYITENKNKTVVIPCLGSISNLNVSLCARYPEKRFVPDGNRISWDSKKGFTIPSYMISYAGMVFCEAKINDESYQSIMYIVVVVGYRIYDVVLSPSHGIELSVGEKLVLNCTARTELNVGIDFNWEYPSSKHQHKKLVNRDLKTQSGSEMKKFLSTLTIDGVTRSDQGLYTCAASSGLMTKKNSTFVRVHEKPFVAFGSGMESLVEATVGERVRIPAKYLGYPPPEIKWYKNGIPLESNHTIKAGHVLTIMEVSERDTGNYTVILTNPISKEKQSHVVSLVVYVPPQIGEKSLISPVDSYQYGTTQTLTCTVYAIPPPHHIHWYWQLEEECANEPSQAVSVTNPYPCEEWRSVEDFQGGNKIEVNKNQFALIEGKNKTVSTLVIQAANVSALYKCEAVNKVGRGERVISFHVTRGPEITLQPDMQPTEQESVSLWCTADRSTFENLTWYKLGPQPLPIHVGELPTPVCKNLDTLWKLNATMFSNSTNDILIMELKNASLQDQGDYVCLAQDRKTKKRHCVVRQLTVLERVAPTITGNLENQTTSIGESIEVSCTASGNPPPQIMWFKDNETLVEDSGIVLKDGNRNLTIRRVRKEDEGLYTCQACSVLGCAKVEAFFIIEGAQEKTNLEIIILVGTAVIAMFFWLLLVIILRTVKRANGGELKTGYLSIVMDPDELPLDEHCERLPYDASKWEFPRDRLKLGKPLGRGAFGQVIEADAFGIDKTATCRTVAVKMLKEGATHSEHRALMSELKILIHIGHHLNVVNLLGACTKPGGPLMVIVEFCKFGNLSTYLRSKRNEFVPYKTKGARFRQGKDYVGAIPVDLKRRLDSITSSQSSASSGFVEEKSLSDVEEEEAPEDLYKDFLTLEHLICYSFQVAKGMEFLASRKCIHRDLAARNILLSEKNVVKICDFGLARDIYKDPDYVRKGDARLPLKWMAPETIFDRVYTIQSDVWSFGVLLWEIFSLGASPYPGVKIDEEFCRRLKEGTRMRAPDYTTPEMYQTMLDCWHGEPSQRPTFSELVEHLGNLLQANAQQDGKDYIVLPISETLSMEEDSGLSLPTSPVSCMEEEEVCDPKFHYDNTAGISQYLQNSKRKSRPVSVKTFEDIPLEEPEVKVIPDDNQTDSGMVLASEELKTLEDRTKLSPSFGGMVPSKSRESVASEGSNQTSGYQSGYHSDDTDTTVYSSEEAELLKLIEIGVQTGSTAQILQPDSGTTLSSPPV

[2] = target: T2, Alpha-1A adrenergic receptor (Homo sapiens, UniProt P35348); assay type: functional, cell-based
T2 sequence (P35348 whole entry): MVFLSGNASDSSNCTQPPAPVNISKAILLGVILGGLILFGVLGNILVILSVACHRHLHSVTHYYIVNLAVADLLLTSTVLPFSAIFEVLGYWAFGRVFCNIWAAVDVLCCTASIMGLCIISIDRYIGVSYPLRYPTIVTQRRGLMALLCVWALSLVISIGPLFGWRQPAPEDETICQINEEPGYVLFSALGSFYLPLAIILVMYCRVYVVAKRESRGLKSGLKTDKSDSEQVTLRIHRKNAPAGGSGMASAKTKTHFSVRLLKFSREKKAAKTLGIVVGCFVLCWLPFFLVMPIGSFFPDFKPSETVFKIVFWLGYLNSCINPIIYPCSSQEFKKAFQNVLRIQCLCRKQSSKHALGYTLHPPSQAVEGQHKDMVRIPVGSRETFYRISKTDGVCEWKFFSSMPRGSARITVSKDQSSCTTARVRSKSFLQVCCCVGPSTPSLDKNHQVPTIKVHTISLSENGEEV

[3] = target: T3, Muscarinic acetylcholine receptor M1 (Homo sapiens, UniProt P11229); assay type: functional, cell-based
T3 sequence (P11229 whole entry): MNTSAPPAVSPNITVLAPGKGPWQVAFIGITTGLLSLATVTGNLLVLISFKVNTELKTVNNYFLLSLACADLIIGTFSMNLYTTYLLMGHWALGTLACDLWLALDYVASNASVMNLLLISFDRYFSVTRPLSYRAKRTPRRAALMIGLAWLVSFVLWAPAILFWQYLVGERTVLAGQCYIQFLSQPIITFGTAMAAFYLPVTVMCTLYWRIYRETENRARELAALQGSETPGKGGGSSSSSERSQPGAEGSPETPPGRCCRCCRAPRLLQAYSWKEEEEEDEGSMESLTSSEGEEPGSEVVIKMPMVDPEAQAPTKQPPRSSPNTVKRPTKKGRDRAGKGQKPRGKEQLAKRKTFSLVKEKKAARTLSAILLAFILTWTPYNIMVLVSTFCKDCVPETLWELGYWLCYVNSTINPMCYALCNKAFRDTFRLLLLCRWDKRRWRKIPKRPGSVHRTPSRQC

Estrogen receptor = target: T4, Estrogen receptor (Homo sapiens, UniProt P03372)
T4 sequence (P03372 whole entry): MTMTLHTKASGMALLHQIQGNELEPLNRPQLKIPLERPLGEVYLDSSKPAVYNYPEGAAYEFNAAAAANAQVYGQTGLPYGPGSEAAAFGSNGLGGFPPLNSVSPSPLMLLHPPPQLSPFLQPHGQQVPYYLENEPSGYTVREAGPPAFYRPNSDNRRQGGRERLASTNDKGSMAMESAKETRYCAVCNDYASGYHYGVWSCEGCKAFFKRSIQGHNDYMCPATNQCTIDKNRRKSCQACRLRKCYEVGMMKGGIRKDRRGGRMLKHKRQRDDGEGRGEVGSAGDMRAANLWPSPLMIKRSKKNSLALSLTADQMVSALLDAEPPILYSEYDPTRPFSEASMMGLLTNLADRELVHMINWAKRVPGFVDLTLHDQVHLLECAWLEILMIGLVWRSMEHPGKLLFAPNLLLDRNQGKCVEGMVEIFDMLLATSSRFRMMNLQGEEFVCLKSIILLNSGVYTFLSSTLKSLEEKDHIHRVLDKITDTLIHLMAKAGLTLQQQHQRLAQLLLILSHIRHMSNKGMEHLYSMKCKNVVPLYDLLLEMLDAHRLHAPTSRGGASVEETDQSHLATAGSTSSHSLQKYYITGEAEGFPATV
Also: assay procedure not described here.

Compound	AC50 (Adenosine receptor A3) [µM]	AC50 [1] [µM]	AC50 [2] [µM]	AC50 [3] [µM]	AC50 (Estrogen receptor) [µM]
CC[C@H](C)C[C@H](C)CCCCCCCCC(=O)N[C@H]1C[C@@H](O)[C@@H](NCCN)NC(=O)[C@@H]2[C@@H](O)CCN2C(=O)[C@H]([C@H](O)CCN)NC(=O)[C@H]([C@H](O)[C@@H](O)c2ccc(O)cc2)NC(=O)[C@@H]2C[C@@H](O)CN2C(=O)[C@H]([C@@H](C)O)NC1=O [CASPOFUNGIN]	11.3	> 10	> 30	15.7	23.1
CC[C@H]1OC(=O)[C@H](C)C(=O)[C@H](C)[C@@H](O[C@@H]2O[C@H](C)C[C@H](N(C)C)[C@H]2O)[C@](C)(OC)C[C@@H](C)C(=O)[C@H](C)[C@H]2N(CCCCn3cnc(-c4cccnc4)c3)C(=O)O[C@]12C [TELITHROMYCIN]	> 30	> 30	> 30	> 30	> 30
CC[C@H](c1ccc(O)cc1)[C@@H](CC)c1ccc(O)cc1 [HEXESTROL]	8.47	> 30	25.9	> 3	0.0252
CNC(=O)Oc1cccc2ccccc12 [CARBARIL]	> 30	> 30	> 30	> 30	> 30
CC(C)OC(=O)CCC/C=C\C[C@@H]1[C@@H](/C=C/C(F)(F)COc2ccccc2)[C@H](O)C[C@@H]1O [TAFLUPROST]	> 30	> 10	> 30	> 30	> 30
OC[C@H]1O[C@@H](c2ccc(Cl)c(Cc3ccc(O[C@H]4CCOC4)cc3)c2)[C@H](O)[C@@H](O)[C@@H]1O [EMPAGLIFLOZIN]	> 30	> 30	> 30	> 30	> 30
CC(C)C[C@H](NC(=O)CNC(=O)c1cc(Cl)ccc1Cl)B(O)O [IXAZOMIB]	> 30	> 30	> 30	> 30	> 30
FC(F)(F)c1ccc(CNc2ccc(Cc3c[nH]c4ncc(Cl)cc34)cn2)cn1 [PEXIDARTINIB]	3.69	0.131	> 30	0.389	> 30
CN1CCCCC1CCN1c2ccccc2Sc2ccc([S+](C)[O-])cc21 (stereo not given) [MESORIDAZINE]	> 30	> 30	> 30	> 30	> 10
[H]/N=C(\N/C(=N/[H])Nc1ccc(Cl)cc1)NC(C)C [PROGUANIL]	> 30	> 30	> 30	> 30	> 30
